The source of these data is paper PMC5085761 (International Journal of Molecular Sciences, 2016).

SMILES strings stand for the structures.

The target of one data set is T1, OAT1 (Homo sapiens, UniProt Q4U2R8).
T1 construct: host or cells: Flp-in-293
T1 sequence (Q4U2R8 1-563): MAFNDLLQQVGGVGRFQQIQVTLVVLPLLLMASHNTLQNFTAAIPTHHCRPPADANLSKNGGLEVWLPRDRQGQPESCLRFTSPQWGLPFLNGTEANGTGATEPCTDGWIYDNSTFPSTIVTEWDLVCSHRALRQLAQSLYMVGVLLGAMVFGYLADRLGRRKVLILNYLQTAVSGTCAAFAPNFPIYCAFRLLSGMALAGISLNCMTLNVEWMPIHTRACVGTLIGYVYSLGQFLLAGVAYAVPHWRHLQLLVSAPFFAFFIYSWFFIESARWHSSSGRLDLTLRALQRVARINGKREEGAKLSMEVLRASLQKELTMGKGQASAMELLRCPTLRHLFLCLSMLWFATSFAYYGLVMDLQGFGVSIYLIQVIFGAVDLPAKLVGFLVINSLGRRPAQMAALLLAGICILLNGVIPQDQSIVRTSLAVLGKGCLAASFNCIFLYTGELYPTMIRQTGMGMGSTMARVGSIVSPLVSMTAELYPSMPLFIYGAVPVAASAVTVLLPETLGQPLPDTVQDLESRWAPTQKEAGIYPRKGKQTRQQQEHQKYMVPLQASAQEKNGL
Nature of the data set: [14C]fluciclovine uptake by OAT1-expressing cells. In kind it is in vitro ADME. The note with it: OAT1 cells vs mock cells. The protocol: (§1) For the SLC transporter experiments, Mock Flp-in-293 cells (Flp/mock), OAT1-expressing Flp-in-293 cells (Flp/OAT1), mock HEK293 cells (HEK/mock), and OATP1B3-expressing HEK293 cells (HEK/OATP1B3) were obtained from Kanazawa University (Ishikawa, Japan). Briefly, Flp-in-293 and HEK293 cells were transfected with the appropriate plasmid DNA and selected using antibiotics (hygromycin or G-418). All cell lines were cultured in DMEM (Life Technologies Japan) supplemented with 10% (v/v) fetal bovine serum (American Type Culture Collection) and antibiotics (100 U/mL penicillin and 100 μg/mL streptomycin (Life Technologies Japan) for mock cells, 0.2 mg/mL hygromycin for Flp/OAT1 cells, and 1.2 mg/mL G-418 (Roche Diagnostics K.K., Tokyo, Japan) for HEK/OATP1B3 cells) at 37 °C under an atmosphere containing 5% CO2. […]
(§2) The experiments were performed as described previously, with minor modifications. […] The cells were lysed in 0.3 mL of 0.1N NaOH at room temperature, after which the radioactivity of each aliquot was measured as described above. The protein concentration of the cell lysate was determined with a VersaMax microplate reader (Molecular Devices Japan K.K., Osaka, Japan) or SpectraMax i3x (Molecular Devices Japan K.K.; only for OATP1B1) using a BCA Protein Assay Kit (Thermo Fisher Scientific, Kanagawa, Japan). Tracer uptake was expressed as pmol/mg protein. […]

The target of another data set is T2, OAT3 (Homo sapiens, UniProt Q8TCC7).
T2 construct: host or cells: HEK293
T2 sequence (Q8TCC7 1-542): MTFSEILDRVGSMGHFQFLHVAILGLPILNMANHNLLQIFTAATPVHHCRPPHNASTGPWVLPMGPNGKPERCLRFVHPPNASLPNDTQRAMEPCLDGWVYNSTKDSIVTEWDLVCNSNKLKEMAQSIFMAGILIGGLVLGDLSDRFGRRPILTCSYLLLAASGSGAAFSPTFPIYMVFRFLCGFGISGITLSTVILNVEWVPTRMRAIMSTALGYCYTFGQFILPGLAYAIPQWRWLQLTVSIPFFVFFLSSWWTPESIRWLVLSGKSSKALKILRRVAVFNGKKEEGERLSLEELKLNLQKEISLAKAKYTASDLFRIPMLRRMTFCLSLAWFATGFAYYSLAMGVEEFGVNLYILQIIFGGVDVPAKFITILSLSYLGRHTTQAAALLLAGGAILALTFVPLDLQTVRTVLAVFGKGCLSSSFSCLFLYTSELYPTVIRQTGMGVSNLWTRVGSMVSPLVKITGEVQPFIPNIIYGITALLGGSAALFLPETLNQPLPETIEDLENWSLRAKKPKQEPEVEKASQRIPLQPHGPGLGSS
As to the kind of experiment: Inhibition of tracer uptake in OAT3-expressing cells. The format is in vitro ADME. On the procedure:
as §1, §2

Consider `N[14C]1(C(=O)O)CC(F)C1` (stereo not drawn) [[^14C]fluciclovine, trans-1-amino-3-fluoro[1-^14C]cyclobutanecarboxylic acid], for which, on OAT1, the drug transporter-mediated uptake entry is reported as “negligible”.
With `N[C@]1(C(=O)O)C[C@@H](F)C1` [fluciclovine], on OAT3 (OAT3, tracer [3H]ES 1 µM, 100 µM–10 mM fluciclovine), the “inhibition by fluciclovine at millimolar concentrations observed” value is recorded as “not”. Also, at OAT3 (in the presence of 10 mM fluciclovine), the “OAT3-mediated ES uptake” value is listed as “increased”.
